Patent US7074789B2, “Kinase inhibitors” (Amgen Inc., priority 1999, dated 2006)

Key:
Format in all cases: biochemical
Lyn = biological target: T1, Lyn (Homo sapiens, UniProt P07948); assay: Kinase inhibition assay (33P transfer), Lyn; details: Table 6, Lyn-1 kinase inhibition class
T1 construct: Kinases are expressed as either kinase domains or full length constructs; made in house
Summary of the method: (§1)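 Read-out: scintillation counts of 33P moved from ATP onto synthetic peptide polymer coated on the well surface, after washing with 0.5% phosphoric acid. Enzymes were tagged (GST or polyHistidine) and came from bacterial or insect-cell expression. IC50 marks 50% loss of incorporated label.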

ErbB2 = biological target: T2, ErbB2 (Homo sapiens, UniProt P04626); assay: Kinase inhibition assay (33P transfer), ErbB2; details: read-out: ErbB2-2
T2 construct: Kinases are expressed as either kinase domains or full length constructs; made in house
Summary of the method: as §1

EGFR = biological target: T3, EGFR (Homo sapiens, UniProt P00533); assay: Kinase inhibition assay (33P transfer), EGFR; details: Table 2, kinase inhibition class; read-out: EGFR-1
T3 construct: Kinases are expressed as either kinase domains or full length constructs; made in house
Summary of the method: as §1

Flt-1 = biological target: T4, Flt-1 (Homo sapiens, UniProt P17948); assay: Kinase inhibition assay (33P transfer), Flt-1
T4 construct: Kinases are expressed as either kinase domains or full length constructs; made in house
Summary of the method: as §1

Zap-70 = biological target: T5, Zap-70 (Homo sapiens, UniProt P43403); assay: Kinase inhibition assay (33P transfer), Zap-70; details: read-out: Zap-1
T5 construct: Kinases are expressed as either kinase domains or full length constructs; made in house
T5 sequence (P43403 1-619): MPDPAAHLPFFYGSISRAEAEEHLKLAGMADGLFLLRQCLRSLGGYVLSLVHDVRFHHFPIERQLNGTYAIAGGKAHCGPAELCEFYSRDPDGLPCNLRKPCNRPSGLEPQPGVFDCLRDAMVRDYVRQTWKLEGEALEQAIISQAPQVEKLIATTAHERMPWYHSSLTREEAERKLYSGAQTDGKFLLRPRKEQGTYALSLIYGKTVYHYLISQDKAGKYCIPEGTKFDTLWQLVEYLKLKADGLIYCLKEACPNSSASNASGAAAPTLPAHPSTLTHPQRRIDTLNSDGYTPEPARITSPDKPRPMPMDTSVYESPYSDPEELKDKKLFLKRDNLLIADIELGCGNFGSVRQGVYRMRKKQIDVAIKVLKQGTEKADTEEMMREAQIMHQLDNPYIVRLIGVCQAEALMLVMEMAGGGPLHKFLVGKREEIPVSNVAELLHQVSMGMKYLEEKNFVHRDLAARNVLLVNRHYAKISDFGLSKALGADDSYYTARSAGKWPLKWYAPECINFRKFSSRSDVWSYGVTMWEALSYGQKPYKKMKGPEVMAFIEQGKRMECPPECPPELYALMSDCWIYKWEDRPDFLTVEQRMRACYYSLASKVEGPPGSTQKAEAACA
Summary of the method: (§2)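 Liquid scintillation counting of 33P on plate-bound synthetic substrates gives kinase activity. Plates are washed in 0.5% phosphoric acid first; kinases are tagged recombinant proteins from E. coli or baculovirus-infected High Five cells.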

IGFR-1 = biological target: T6, IGFR-1 (Homo sapiens, UniProt P08069); assay: Kinase inhibition assay, IGFR-1 (Table 2); details: Table 2, kinase inhibition class
T6 construct: Kinases are expressed as either kinase domains or full length constructs; made in house

AKT = biological target: T7, AKT (Homo sapiens, UniProt Q9Y243); assay: Kinase inhibition assay (33P transfer), AKT; details: Table 2, kinase inhibition class; read-out: AKT3-1
T7 construct: Kinases are expressed as either kinase domains or full length constructs; made in house
Summary of the method: as §2

Hck-1 = biological target: T8, Hck-1 (Homo sapiens, UniProt P08631); assay: Kinase inhibition assay (33P transfer), Hck; details: Table 6, Hck-1 kinase inhibition class
T8 construct: Kinases are expressed as either kinase domains or full length constructs; made in house

Itk = biological target: T9, Itk (Homo sapiens, UniProt Q08881); assay: Kinase inhibition assay (33P transfer), Itk; details: read-out: Itk-1
T9 construct: Kinases are expressed as either kinase domains or full length constructs; made in house
T9 sequence (Q08881 1-620): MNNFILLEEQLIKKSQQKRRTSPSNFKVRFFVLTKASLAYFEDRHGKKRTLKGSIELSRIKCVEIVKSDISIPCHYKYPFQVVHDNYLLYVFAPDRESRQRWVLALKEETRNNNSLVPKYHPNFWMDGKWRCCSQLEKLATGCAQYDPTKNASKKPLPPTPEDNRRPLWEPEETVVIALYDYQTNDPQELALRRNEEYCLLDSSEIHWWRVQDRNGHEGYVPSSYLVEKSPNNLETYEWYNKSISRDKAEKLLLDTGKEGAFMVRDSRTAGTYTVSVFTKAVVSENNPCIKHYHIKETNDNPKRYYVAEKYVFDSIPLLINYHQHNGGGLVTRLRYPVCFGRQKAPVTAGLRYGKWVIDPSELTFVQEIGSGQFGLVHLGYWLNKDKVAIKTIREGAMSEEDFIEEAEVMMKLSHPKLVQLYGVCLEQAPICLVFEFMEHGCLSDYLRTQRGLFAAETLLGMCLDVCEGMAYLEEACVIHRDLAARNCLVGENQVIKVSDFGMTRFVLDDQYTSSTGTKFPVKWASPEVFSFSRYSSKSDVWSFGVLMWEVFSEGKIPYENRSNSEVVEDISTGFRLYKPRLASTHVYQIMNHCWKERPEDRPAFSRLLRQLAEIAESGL
Summary of the method: as §1

Tek = biological target: T10, Tek (Homo sapiens, UniProt Q02763); assay: Kinase inhibition assay (33P transfer), Tek; details: read-out: Tek-1
T10 construct: Kinases are expressed as either kinase domains or full length constructs; made in house
Summary of the method: as §1

PDGFRB = biological target: T11, PDGFRB (Homo sapiens, UniProt P09619); assay: Kinase inhibition assay (33P transfer), PDGFRB; details: read-out: PDGFRB-1
T11 construct: Kinases are expressed as either kinase domains or full length constructs; made in house

FGFR1 = biological target: T12, FGFR1 (Homo sapiens, UniProt P11362); assay: Kinase inhibition assay (33P transfer), FGFR1; details: read-out: FGFR1-1
T12 construct: Kinases are expressed as either kinase domains or full length constructs; made in house

c-Met = biological target: T13, c-Met (Homo sapiens, UniProt P08581); assay: Kinase inhibition assay (33P transfer), c-Met; details: Table 2, kinase inhibition class; read-out: Met-1
T13 construct: Kinases are expressed as either kinase domains or full length constructs; made in house
Summary of the method: as §1

Lck = biological target: T14, Lck (Homo sapiens, UniProt P06239); assay: Kinase inhibition assay (33P transfer), Lck; details: read-out: Lck-1
T14 construct: Kinases are expressed as either kinase domains or full length constructs; made in house
Summary of the method: as §2

Fyn = biological target: T15, Fyn (Homo sapiens, UniProt P06241); assay: Kinase inhibition assay (33P transfer), Fyn; details: read-out: Fyn-1
T15 construct: Kinases are expressed as either kinase domains or full length constructs; made in house
Summary of the method: as §1

Src = biological target: T16, Src (Homo sapiens, UniProt P12931); assay: Kinase inhibition assay (33P transfer), Src; details: Table 6, Src-1 kinase inhibition class
T16 construct: Kinases are expressed as either kinase domains or full length constructs; made in house
Summary of the method: as §1

Ret-1 = biological target: T17, Ret-1 (Homo sapiens, UniProt P07949); assay: Kinase inhibition assay (33P transfer), Ret; details: Table 6, Ret-1 kinase inhibition class
T17 construct: Kinases are expressed as either kinase domains or full length constructs; made in house

Kdr = biological target: T18, Kdr (Homo sapiens, UniProt P35968); assay: Kinase inhibition assay (33P transfer), Kdr; details: read-out: KDR-1
T18 construct: Kinases are expressed as either kinase domains or full length constructs; made in house
Summary of the method: as §2

ErbB4 = biological target: T19, ErbB4 (Homo sapiens, UniProt Q15303); assay: Kinase inhibition assay (33P transfer), ErbB4; details: read-out: ErbB4-1
T19 construct: Kinases are expressed as either kinase domains or full length constructs; made in house
T19 sequence (Q15303 26-1308, species assumed): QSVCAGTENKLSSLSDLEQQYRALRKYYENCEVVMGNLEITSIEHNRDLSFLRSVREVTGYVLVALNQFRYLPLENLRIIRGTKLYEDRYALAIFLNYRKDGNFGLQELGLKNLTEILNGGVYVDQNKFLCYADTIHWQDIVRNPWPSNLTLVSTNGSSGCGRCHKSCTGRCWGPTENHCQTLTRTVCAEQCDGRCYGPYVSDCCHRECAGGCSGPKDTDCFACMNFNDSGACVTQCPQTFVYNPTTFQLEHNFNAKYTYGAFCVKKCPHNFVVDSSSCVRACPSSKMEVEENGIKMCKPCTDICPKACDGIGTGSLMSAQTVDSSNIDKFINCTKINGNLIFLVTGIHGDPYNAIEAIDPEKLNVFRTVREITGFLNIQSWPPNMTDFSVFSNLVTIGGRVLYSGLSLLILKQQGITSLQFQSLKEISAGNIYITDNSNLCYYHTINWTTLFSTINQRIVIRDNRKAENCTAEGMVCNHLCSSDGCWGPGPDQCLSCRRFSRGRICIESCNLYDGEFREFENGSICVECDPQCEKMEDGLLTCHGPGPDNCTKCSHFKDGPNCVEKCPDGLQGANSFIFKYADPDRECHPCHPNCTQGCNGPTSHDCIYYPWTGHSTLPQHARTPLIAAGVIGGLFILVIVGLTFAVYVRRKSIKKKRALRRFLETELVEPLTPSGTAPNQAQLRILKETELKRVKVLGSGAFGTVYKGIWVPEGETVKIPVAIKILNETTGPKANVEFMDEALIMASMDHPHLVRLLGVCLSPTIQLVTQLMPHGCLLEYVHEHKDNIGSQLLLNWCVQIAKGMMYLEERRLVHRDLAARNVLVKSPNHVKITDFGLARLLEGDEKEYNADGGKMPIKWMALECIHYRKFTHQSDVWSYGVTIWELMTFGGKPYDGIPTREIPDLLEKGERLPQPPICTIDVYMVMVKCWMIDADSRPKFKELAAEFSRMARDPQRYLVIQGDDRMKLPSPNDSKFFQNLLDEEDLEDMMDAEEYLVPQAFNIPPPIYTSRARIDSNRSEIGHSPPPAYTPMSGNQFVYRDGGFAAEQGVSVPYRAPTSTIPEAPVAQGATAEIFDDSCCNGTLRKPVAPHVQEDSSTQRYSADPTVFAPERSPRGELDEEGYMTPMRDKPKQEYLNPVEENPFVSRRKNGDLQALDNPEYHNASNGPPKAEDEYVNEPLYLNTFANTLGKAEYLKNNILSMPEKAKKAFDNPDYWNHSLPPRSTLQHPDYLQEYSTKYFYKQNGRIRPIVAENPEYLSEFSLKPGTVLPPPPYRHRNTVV

T3 sequence (P00533 25-1210, species assumed): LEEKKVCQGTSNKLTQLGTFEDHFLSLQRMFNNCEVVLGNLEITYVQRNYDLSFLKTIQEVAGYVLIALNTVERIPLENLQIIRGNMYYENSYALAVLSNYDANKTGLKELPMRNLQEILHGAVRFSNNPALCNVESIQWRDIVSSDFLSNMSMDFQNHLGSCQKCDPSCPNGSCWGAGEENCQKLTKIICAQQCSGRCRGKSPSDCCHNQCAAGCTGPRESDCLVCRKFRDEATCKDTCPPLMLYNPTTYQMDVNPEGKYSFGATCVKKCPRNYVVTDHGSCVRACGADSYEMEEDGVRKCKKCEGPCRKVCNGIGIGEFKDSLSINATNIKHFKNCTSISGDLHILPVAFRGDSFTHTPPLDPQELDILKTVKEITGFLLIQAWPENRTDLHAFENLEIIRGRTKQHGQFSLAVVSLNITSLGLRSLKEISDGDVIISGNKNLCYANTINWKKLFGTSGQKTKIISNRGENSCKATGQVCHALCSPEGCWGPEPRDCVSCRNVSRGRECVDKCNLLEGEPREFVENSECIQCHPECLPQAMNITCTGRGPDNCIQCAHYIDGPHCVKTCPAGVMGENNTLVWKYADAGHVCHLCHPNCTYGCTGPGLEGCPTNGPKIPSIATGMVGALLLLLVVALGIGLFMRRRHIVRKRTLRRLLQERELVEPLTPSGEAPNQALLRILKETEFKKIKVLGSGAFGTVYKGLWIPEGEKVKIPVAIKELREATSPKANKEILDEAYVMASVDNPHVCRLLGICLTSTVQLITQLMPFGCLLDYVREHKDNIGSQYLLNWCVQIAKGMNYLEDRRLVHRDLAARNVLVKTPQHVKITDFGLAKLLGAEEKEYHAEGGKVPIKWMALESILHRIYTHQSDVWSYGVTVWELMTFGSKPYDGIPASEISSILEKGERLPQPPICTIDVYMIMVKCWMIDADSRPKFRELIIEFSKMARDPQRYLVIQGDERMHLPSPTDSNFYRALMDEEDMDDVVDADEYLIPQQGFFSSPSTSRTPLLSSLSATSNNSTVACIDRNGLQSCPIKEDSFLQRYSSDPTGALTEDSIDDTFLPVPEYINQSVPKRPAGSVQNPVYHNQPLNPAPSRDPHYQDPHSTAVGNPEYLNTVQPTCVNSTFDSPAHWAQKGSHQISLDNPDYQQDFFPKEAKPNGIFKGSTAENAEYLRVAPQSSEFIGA
T7 sequence (Q9Y243 whole entry, the tested form may be a part): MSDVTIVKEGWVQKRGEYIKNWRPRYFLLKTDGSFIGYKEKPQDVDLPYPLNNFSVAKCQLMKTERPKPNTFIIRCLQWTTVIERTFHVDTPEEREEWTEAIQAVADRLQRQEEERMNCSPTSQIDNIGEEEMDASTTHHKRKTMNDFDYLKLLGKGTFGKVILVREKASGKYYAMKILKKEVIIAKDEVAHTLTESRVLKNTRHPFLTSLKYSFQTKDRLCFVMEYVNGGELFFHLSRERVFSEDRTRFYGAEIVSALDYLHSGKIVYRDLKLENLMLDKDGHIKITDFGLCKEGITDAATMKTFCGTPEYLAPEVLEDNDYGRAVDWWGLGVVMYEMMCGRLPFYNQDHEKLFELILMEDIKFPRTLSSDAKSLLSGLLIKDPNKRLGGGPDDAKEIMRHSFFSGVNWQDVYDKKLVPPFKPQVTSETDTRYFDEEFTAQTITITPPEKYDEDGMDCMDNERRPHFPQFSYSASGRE
T12 sequence (P11362 22-822, species assumed): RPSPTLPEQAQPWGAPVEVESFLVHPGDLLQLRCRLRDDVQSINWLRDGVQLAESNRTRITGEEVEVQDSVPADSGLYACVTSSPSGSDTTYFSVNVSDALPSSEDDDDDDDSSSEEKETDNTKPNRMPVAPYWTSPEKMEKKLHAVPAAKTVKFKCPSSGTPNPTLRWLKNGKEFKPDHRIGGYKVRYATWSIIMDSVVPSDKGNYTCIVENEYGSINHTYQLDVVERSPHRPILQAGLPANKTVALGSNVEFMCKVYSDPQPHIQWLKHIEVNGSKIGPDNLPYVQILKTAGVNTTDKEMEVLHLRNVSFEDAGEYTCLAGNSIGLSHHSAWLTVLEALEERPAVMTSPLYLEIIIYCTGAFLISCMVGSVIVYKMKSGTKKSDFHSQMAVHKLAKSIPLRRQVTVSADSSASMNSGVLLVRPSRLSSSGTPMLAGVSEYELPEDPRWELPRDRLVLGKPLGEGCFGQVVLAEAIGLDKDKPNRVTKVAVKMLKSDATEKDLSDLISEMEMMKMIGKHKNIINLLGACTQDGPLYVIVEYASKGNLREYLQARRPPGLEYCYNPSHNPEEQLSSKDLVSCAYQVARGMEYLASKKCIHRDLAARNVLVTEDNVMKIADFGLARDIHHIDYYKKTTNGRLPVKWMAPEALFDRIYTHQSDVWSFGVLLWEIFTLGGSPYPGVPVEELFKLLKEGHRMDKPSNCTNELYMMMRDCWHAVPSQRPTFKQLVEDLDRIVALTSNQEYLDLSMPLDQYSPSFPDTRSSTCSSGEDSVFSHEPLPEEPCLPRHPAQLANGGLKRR
T13 sequence (P08581 25-1390): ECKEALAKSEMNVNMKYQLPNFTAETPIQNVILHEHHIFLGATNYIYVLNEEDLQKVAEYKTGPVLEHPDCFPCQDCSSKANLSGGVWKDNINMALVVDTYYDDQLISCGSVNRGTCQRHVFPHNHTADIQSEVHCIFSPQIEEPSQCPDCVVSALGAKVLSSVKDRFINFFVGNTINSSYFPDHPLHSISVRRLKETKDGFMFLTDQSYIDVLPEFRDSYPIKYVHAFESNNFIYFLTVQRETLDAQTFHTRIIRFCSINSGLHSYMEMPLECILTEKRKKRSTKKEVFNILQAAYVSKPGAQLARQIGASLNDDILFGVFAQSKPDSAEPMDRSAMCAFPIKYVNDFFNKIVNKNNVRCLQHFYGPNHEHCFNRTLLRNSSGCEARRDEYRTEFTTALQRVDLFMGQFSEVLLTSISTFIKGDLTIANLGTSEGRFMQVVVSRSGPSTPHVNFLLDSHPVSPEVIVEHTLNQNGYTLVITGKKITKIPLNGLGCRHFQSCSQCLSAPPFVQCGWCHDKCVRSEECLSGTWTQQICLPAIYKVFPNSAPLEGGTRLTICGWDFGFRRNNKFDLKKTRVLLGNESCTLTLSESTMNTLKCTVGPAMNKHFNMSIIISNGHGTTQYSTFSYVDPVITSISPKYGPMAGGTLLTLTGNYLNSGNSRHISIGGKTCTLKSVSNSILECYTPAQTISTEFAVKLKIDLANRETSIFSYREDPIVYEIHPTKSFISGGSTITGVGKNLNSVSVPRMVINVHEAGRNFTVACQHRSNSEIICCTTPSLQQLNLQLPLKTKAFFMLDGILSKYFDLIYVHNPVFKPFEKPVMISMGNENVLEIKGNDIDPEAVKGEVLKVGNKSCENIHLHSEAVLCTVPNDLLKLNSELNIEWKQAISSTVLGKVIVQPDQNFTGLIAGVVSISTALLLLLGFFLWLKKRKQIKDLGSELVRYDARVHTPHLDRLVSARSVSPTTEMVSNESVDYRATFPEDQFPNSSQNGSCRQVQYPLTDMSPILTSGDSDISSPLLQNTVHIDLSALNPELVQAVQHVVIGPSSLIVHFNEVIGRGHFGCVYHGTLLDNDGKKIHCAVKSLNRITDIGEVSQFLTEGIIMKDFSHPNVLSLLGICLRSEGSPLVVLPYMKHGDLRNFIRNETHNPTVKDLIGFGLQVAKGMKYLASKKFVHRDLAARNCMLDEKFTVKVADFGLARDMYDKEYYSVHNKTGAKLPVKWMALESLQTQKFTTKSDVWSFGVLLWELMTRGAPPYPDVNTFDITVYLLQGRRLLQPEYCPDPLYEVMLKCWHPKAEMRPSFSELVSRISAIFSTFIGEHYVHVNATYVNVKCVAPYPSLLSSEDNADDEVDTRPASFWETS

| Compound | IC50 (Lyn) [µM] | IC50 (ErbB2) [µM] | IC50 (EGFR) [µM] | IC50 (Flt-1) [µM] | IC50 (Zap-70) [µM] | IC50 (IGFR-1) [µM] | IC50 (AKT) [µM] | IC50 (Hck-1) [µM] | IC50 (Itk) [µM] | IC50 (Tek) [µM] | IC50 (PDGFRB) [µM] | IC50 (FGFR1) [µM] | IC50 (c-Met) [µM] | IC50 (Lck) [µM] | IC50 (Fyn) [µM] | IC50 (Src) [µM] | IC50 (Ret-1) [µM] | IC50 (Kdr) [µM] | IC50 (ErbB4) [µM] |
| --- | --- | --- | --- | --- | --- | --- | --- | --- | --- | --- | --- | --- | --- | --- | --- | --- | --- | --- | --- |
| COc1cc(Nc2ncnc(-c3cccnc3NCc3ccc(F)cc3)n2)cc(OC)c1OC [Compound 1088] | > 9.73 | > 9.73 | > 9.73 | > 9.73 | > 9.73 | > 9.73 | > 9.73 | > 9.73 | > 9.73 | > 9.73 | < 0.865 | < 0.865 | > 9.73 | 5.19 to 7.57 | > 9.73 | > 9.73 | < 0.865 | < 0.865 | > 9.73 |
| COc1cc(Nc2ncnc(-n3c(NCCc4ccccn4)nc4ccccc43)n2)cc(OC)c1OC [Compound 510] | > 9.03 | > 9.03 | > 9.03 | 0.802 to 4.81 | > 9.03 | > 9.03 | > 9.03 | > 9.03 | 0.802 to 4.81 | > 9.03 | 4.81 to 7.02 | 0.802 to 4.81 | > 9.03 | 0.802 to 4.81 | > 9.03 | > 9.03 | 0.802 to 4.81 | < 0.802 | > 9.03 |

Results, then the compound that gave them:

| IC50 (Lyn) [µM] | IC50 (ErbB2) [µM] | IC50 (EGFR) [µM] | IC50 (Flt-1) [µM] | IC50 (Zap-70) [µM] | IC50 (IGFR-1) [µM] | IC50 (AKT) [µM] | IC50 (Hck-1) [µM] | IC50 (Itk) [µM] | IC50 (Tek) [µM] | IC50 (PDGFRB) [µM] | IC50 (FGFR1) [µM] | IC50 (c-Met) [µM] | IC50 (Lck) [µM] | IC50 (Fyn) [µM] | IC50 (Src) [µM] | IC50 (Ret-1) [µM] | IC50 (Kdr) [µM] | IC50 (ErbB4) [µM] | Compound |
| --- | --- | --- | --- | --- | --- | --- | --- | --- | --- | --- | --- | --- | --- | --- | --- | --- | --- | --- | --- |
| < 0.796 | < 0.796 | < 0.796 | 4.78 to 6.96 | > 8.95 | 0.796 to 4.78 | > 8.95 | 0.796 to 4.78 | 0.796 to 4.78 | 0.796 to 4.78 | < 0.796 | 0.796 to 4.78 | > 8.95 | < 0.796 | 0.796 to 4.78 | < 0.796 | 0.796 to 4.78 | < 0.796 | 0.796 to 4.78 | COc1cc(Nc2ncnc(Nc3cccc4ccccc34)n2)cc(OC)c1OCCN1CCOCC1 [Compound 1041] |
| 7.2 to 10.5 | 7.2 to 10.5 | 7.2 to 10.5 | 1.2 to 7.2 | > 13.5 | < 1.2 | > 13.5 | 7.2 to 10.5 | 7.2 to 10.5 | 1.2 to 7.2 | 1.2 to 7.2 | 1.2 to 7.2 | 1.2 to 7.2 | 1.2 to 7.2 | 10.5 to 13.5 | 7.2 to 10.5 | 1.2 to 7.2 | < 1.2 | 7.2 to 10.5 | COc1ccc(Nc2ncnc(-n3c(N)nc4ccccc43)n2)cc1 [Compound 656] |
| 6.04 to 8.81 | > 11.3 | 1.01 to 6.04 | > 11.3 | 1.01 to 6.04 | 6.04 to 8.81 | > 11.3 | > 11.3 | > 11.3 | 1.01 to 6.04 | 1.01 to 6.04 | > 11.3 | 8.81 to 11.3 | 1.01 to 6.04 | > 11.3 | > 11.3 | < 1.01 | < 1.01 | 1.01 to 6.04 | NC(=O)c1ccc(Nc2ncnc(-c3cccnc3NCc3ccccc3)n2)cc1 [Compound 1082] |
